Test system: Male WistarF/Han (WF) rats
Assay: 1 h food-intake with Y1R antagonist BIBP3226, P32/98 and NPY (Example 4)
Format: in vivo, rat
Settings: i.c.v. 50 nmol
Description: Animals. Male WistarF/Han (WF) rats (Central Animal Laboratory, Hannover Medical School, Hannover, Germany, weighing 330±31 g±SD, were housed in a sound-proof, temperature controlled (24.0±0.5° C.) room under specific pathogen free conditions with a 12/12 h dark/light cycle (lights on at 07.00 with illumination level of 80 Lux). Food (Altromin lab chow pellets) and tap water were available ad libitum. Under ketamine/xylasine (100/5 mg/kg, i.p.) anesthesia, the rats were fixed in a Kopf stereotaxic frame and implanted with cannulae (Plastic One, Inc., Roanoke, Va., USA) above the lateral ventricle. All research and animal care procedures were approved by the Lower Saxony district government (Hannover, Germany) and followed principles described in the European Community's Council Directive of 24 Nov. 1986 (86/609/EEC).
Surgery and i.c.v. application. […]
Animals were randomly divided into eight experimental groups (n=6-8/group), which completed one SI test of anxiety: (1) aCSF+aCSF+aCSF; (2) BIBP+aCSF+aCSF; (3) aCSF+P32/98+aCSF; (4) BIBP+P32/98+aCSF; (5) aCSF+aCSF+NPY; (6) BIBP+aCSF+NPY; (7) aCSF+[…]+NPY; (8) BIBP+P32/98+NPY. […] The time spent in active social interaction (SI-time), 1 h, and 12 h food-intake were measured. […]
Statistical analysis. Data obtained from the measures SI time and 1 h food intake were analyzed by one-way (factor: “treatment”) ANOVA. […]

Structure (SMILES): CC[C@H](C)[C@H](N)C(=O)N1CCSC1 [P32/98]
- 1 h food-intake, P32/98 alone: non-significant slight increase of feeding
